Assay results from ChEMBL document CHEMBL1671626, “In vitro profiling of ceftaroline against a collection of recent bacterial clinical isolates from across the United States” (2008).
Values after ≈ are worked out from the molar mass of the structure shown.

What was measured:
Format in all cases: functional
Staphylococcus aureus [1] = assay: Antibacterial activity against methicillin-resistant Staphylococcus aureus by CLSI M7-A7 broth microdilution method
Staphylococcus aureus [2] = assay: Antibacterial activity against methicillin-resistant Staphylococcus aureus assessed as susceptible isolates by CLSI M7-A7 broth microdilution method
Staphylococcus aureus [3] = assay: Antibacterial activity against coagulase-negative and oxacillin-susceptible Staphylococcus aureus by CLSI M7-A7 broth microdilution method
Staphylococcus aureus [4] = assay: Antibacterial activity against coagulase-negative and oxacillin-susceptible Staphylococcus aureus assessed as resistant isolates by CLSI M7-A7 broth microdilution method
Staphylococcus aureus [5] = assay: Antibacterial activity against coagulase-negative and oxacillin-resistant Staphylococcus aureus assessed as susceptible isolates by CLSI M7-A7 broth microdilution method
Streptococcus pneumoniae [6] = assay: Antibacterial activity against penicillin-susceptible Streptococcus pneumoniae assessed as susceptible isolates by CLSI M7-A7 broth microdilution method
Streptococcus pneumoniae [7] = assay: Antibacterial activity against penicillin-resistant Streptococcus pneumoniae assessed as resistant isolates by CLSI M7-A7 broth microdilution method
Streptococcus viridans = assay: Antibacterial activity against penicillin-nonsusceptible Streptococcus viridans by CLSI M7-A7 broth microdilution method
Enterococcus faecalis = assay: Antibacterial activity against vancomycin-susceptible Enterococcus faecalis by CLSI M7-A7 broth microdilution method
Enterobacteriaceae [8] = assay: Antibacterial activity against ceftazidime-susceptible Enterobacteriaceae by CLSI M7-A7 broth microdilution method
Enterobacteriaceae [9] = assay: Antibacterial activity against ceftazidime-susceptible Enterobacteriaceae assessed as susceptible isolates by CLSI M7-A7 broth microdilution method
Enterobacteriaceae [10] = assay: Antibacterial activity against ceftazidime-susceptible Enterobacteriaceae assessed as resistant isolates by CLSI M7-A7 broth microdilution method
Enterobacteriaceae [11] = assay: Antibacterial activity against ceftazidime-nonsusceptible Enterobacteriaceae assessed as resistant isolates by CLSI M7-A7 broth microdilution method
Citrobacter freundii [12] = assay: Antibacterial activity against ceftazidime-susceptible Citrobacter freundii by CLSI M7-A7 broth microdilution method
Citrobacter freundii [13] = assay: Antibacterial activity against ceftazidime-susceptible Citrobacter freundii assessed as resistant isolates by CLSI M7-A7 broth microdilution method
Citrobacter freundii [14] = assay: Antibacterial activity against ceftazidime-nonsusceptible Citrobacter freundii by CLSI M7-A7 broth microdilution method
Citrobacter freundii [15] = assay: Antibacterial activity against ceftazidime-nonsusceptible Citrobacter freundii assessed as susceptible isolates by CLSI M7-A7 broth microdilution method
Citrobacter freundii [16] = assay: Antibacterial activity against ceftazidime-nonsusceptible Citrobacter freundii assessed as resistant isolates by CLSI M7-A7 broth microdilution method
Enterobacter cloacae [17] = assay: Antibacterial activity against ceftazidime-susceptible Enterobacter cloacae by CLSI M7-A7 broth microdilution method
Enterobacter cloacae [18] = assay: Antibacterial activity against ceftazidime-susceptible Enterobacter cloacae assessed as resistant isolates by CLSI M7-A7 broth microdilution method
Enterobacter cloacae [19] = assay: Antibacterial activity against ceftazidime-nonsusceptible Enterobacter cloacae assessed as resistant isolates by CLSI M7-A7 broth microdilution method
Escherichia coli [20] = assay: Antibacterial activity against ceftazidime-susceptible Escherichia coli assessed as resistant isolates by CLSI M7-A7 broth microdilution method
Escherichia coli [21] = assay: Antibacterial activity against ceftazidime-nonsusceptible Escherichia coli assessed as susceptible isolates by CLSI M7-A7 broth microdilution method
Escherichia coli [22] = assay: Antibacterial activity against ceftazidime-nonsusceptible Escherichia coli assessed as resistant isolates by CLSI M7-A7 broth microdilution method
Klebsiella pneumoniae [23] = assay: Antibacterial activity against ceftazidime-susceptible Klebsiella pneumoniae assessed as susceptible isolates by CLSI M7-A7 broth microdilution method
Klebsiella pneumoniae [24] = assay: Antibacterial activity against ceftazidime-nonsusceptible Klebsiella pneumoniae by CLSI M7-A7 broth microdilution method
Klebsiella pneumoniae [25] = assay: Antibacterial activity against ceftazidime-nonsusceptible Klebsiella pneumoniae assessed as susceptible isolates by CLSI M7-A7 broth microdilution method
Klebsiella pneumoniae [26] = assay: Antibacterial activity against ceftazidime-nonsusceptible Klebsiella pneumoniae assessed as resistant isolates by CLSI M7-A7 broth microdilution method
Morganella morganii = assay: Antibacterial activity against ceftazidime-susceptible Morganella morganii assessed as susceptible isolates by CLSI M7-A7 broth microdilution method
Proteus mirabilis [27] = assay: Antibacterial activity against ceftazidime-susceptible Proteus mirabilis assessed as susceptible isolates by CLSI M7-A7 broth microdilution method
Proteus mirabilis [28] = assay: Antibacterial activity against ceftazidime-susceptible Proteus mirabilis assessed as resistant isolates by CLSI M7-A7 broth microdilution method
Serratia marcescens = assay: Antibacterial activity against ceftazidime-susceptible Serratia marcescens assessed as susceptible isolates by CLSI M7-A7 broth microdilution method
Acinetobacter = assay: Antibacterial activity against multidrug-resistant Acinetobacter assessed as resistant isolates by CLSI M7-A7 broth microdilution method
Haemophilus influenzae [29] = assay: Antibacterial activity against beta lactamase-negative Haemophilus influenzae by CLSI M7-A7 broth microdilution method
Haemophilus influenzae [30] = assay: Antibacterial activity against beta lactamase-positive Haemophilus influenzae by CLSI M7-A7 broth microdilution method
Pasteurella multocida = assay: Antibacterial activity against Pasteurella multocida by CLSI M7-A7 broth microdilution method
Providencia sp. [31] = assay: Antibacterial activity against ceftazidime-susceptible Providencia sp. by CLSI M7-A7 broth microdilution method
Providencia sp. [32] = assay: Antibacterial activity against ceftazidime-susceptible Providencia sp. assessed as resistant isolates by CLSI M7-A7 broth microdilution method

C[C@@H](O)[C@H]1C(=O)N2C(C(=O)O)=C(SCCNC=N)C[C@H]12 [IMIPENEM ANHYDROUS]
MIC50 (Staphylococcus aureus [1]): 0.25 µg/mL (≈ 0.835 µM)
MIC90 (Staphylococcus aureus [1]): > 16 µg/mL
Activity (Staphylococcus aureus [2]): 84.6%
MIC (Staphylococcus aureus [3]): ≤ 0.12 µg/mL
MIC50 (Staphylococcus aureus [3]): ≤ 0.12 µg/mL
MIC90 (Staphylococcus aureus [3]): ≤ 0.12 µg/mL
Activity (Staphylococcus aureus [4]): 0%
Activity (Staphylococcus aureus [5]): 77.3%
Activity (Streptococcus pneumoniae [6]): 96.5%
Activity (Streptococcus pneumoniae [7]): 10.8%
MIC50 (Streptococcus viridans): 0.06 µg/mL (≈ 0.2 µM)
MIC90 (Streptococcus viridans): 1 µg/mL (≈ 3.34 µM)
MIC50 (Enterococcus faecalis): 1 µg/mL (≈ 3.34 µM)
MIC90 (Enterococcus faecalis): 2 µg/mL (≈ 6.68 µM)
MIC50 (Enterobacteriaceae [8]): 0.25 µg/mL (≈ 0.835 µM)
MIC90 (Enterobacteriaceae [8]): 1 µg/mL (≈ 3.34 µM)
Activity (Enterobacteriaceae [9]): 100%
Activity (Enterobacteriaceae [10]): 0%
Activity (Enterobacteriaceae [11]): 4.5%
MIC50 (Citrobacter freundii [12]): 0.5 µg/mL (≈ 1.67 µM)
MIC90 (Citrobacter freundii [12]): 1 µg/mL (≈ 3.34 µM)
Activity (Citrobacter freundii [13]): 0%
MIC50 (Citrobacter freundii [14]): 0.5 µg/mL (≈ 1.67 µM)
MIC90 (Citrobacter freundii [14]): 1 µg/mL (≈ 3.34 µM)
Activity (Citrobacter freundii [15]): 100%
Activity (Citrobacter freundii [16]): 0%
MIC50 (Enterobacter cloacae [17]): 0.5 µg/mL (≈ 1.67 µM)
MIC90 (Enterobacter cloacae [17]): 0.5 µg/mL (≈ 1.67 µM)
Activity (Enterobacter cloacae [18]): 0%
Activity (Enterobacter cloacae [19]): 2.9%
Activity (Escherichia coli [20]): 0%
Activity (Escherichia coli [21]): 96.8%
Activity (Escherichia coli [22]): 3.2%
Activity (Klebsiella pneumoniae [23]): 100%
MIC50 (Klebsiella pneumoniae [24]): 0.12 µg/mL (≈ 0.401 µM)
MIC90 (Klebsiella pneumoniae [24]): 16 µg/mL (≈ 53.4 µM)
Activity (Klebsiella pneumoniae [25]): 80.3%
Activity (Klebsiella pneumoniae [26]): 10.6%
Activity (Morganella morganii): 100%
Activity (Proteus mirabilis [27]): 100%
Activity (Proteus mirabilis [28]): 0%
Activity (Serratia marcescens): 100%
Activity (Acinetobacter): 31.3%
MIC50 (Haemophilus influenzae [29]): 0.25 µg/mL (≈ 0.835 µM)
MIC90 (Haemophilus influenzae [29]): 0.5 µg/mL (≈ 1.67 µM)
MIC50 (Haemophilus influenzae [30]): 0.12 µg/mL (≈ 0.401 µM)
MIC90 (Haemophilus influenzae [30]): 0.5 µg/mL (≈ 1.67 µM)
MIC50 (Pasteurella multocida): 0.25 µg/mL (≈ 0.835 µM)
MIC90 (Pasteurella multocida): 2 µg/mL (≈ 6.68 µM)
MIC50 (Providencia sp. [31]): 1 µg/mL (≈ 3.34 µM)
MIC90 (Providencia sp. [31]): 2 µg/mL (≈ 6.68 µM)
Activity (Providencia sp. [32]): 0%
